Experimental findings from US8653048B2 (Sanlugen Pharmatech Ltd., priority 2009, dated 2014) are described below.

Bounds are passed on as bounds.

What is called IC50 is the concentration at which inhibition is half-maximal. High values mean weaker potency in that assay, low ones greater potency in that assay.

Format in all cases: cell-based
Experiment [1] concerns NCI-H460: a human lung cancer cell line. Briefly: MTT analytical method, NCI-H460 cells. The conditions noted are these: 72 h. From the text: (§1) MTT analytical method was used to test the prodrugs for various tumor cells.
(§2) • 1) Cell lines: NCI-H460, A549, LOVO, HT-29, MDA-MB-231, SGC7901, HepG2 or BEL-7402 cell lines. Culture: adherent culturing in D-MEM (Hyclone, Inc.) containing 10% fetal calf serum. The initial cell concentration was about 3×10^5 /mL. The cell was passaged by 1:3 dilution in every 2-3 days. On the day before the test, the cell was passaged by 1:2 dilution, the cell concentration for the test was 5-10×10^5 /mL. • 2) Dissolution and dilution of compounds: according to the weight and molecular weight of the drugs provided, 100-200 μL of DMSO was added. Then normal saline was added to make the final diluted concentration of the drugs be 5 mM (Note that the final concentration of DMSO should not be more than 10%). • 3) D-MEM or RPMI 1640 cell culture medium, Gibco, Inc. • 4) Fetal calf serum Hyclone, Inc. • 5) Cell dissociation buffer, 0.25% Trypsin+0.02% EDTA. • 6) MTT solution, MTT Powder (Sigma) were dissolved in PBS buffer solution to make a solution of 5 mg/mL. The solution was filtered by a 0.22 μm micropore membrane and stored at −20° C. • 7) PBS buffer solution. • 8) 10% acidified SDS, 0.01N HCl. • 9) Centrifuge tubes, haustorial tubes etc. (BD, Inc.); 96-well plates (Costatr, Inc.) Procedures: • 1) Cell inoculation: Cells grown for 24 hours after passage, which cells were in good growth state, were used. The cells were harvested by the routine method. The cell concentration was adjust with a fresh culture solution to 2×10^5/mL (for adherent cells)-3×10^5/mL (for suspension cells). The adherent cells were inoculated at 100 μL/well and then cultivated in an incubator with 5% CO2 at 37° C. for 24 h. Thereafter the used culture solution was removed and 95 μL/well of fresh culture solution was added. The suspension cells were inoculated at 95 μL/well directly. • 2) Drugs treatment: 9 concentration grades were designed for every drug, and every concentration had 3 wells. The control group had 5 wells. The control group was tested simultaneously in each test. The final concentrations of a drug added were […], and 5 μL normal saline was added to the control group. • 3) Cell culture and detection: the cells were cultured in an incubator with 5% CO2 at 37° C. for 72 h after the drug was added, then 10 μL MTT was added to each well and the culture was continued for 4 h. 100 μL of 10% SDS (containing 0.01N HCl) was added to each well. After 24 h, the absorbance (A) of each well was determined by Bio-rad 680 ELISA with the detection wavelength of 570 nm and the reference wavelength of 630 nm. Calculation:
(§3) First, the absorbance (A) of each well was averaged (removing any data with big difference). […] A0 was the mean absorbance of the control wells. The effect curve of the drug concentration was drawn using EXCEL software and the drug concentration for 50% cell survival was calculated according to an appropriate computing methods.
For orientation: Tetrazolium assays rely on reduction of a dye to a coloured formazan, in cell work by metabolically active cells.

In experiment [2] the test system is Bel7402: a human liver cancer cell line. Briefly: MTT analytical method, Bel7402 cells. Particulars: Bel-7402, 72 h.
Description: as §1, §2, §3

Experiment [3] deals with HT29: a human colon cancer cell line. As to the kind of experiment: MTT analytical method, HT29 cells. The conditions noted are these: HT-29, 72 h.
Description: as §1, §2, §3

The subject of experiment [4] is MDA-MB-231: a human breast cancer line. Briefly: MTT analytical method, MDA-MB-231 cells. Particulars: MDA-MB-231, MTT, 72 h.
Description: as §1, §2, §3

The subject of experiment [5] is LOVO: a human colon cancer cell line. Briefly: MTT analytical method, LOVO cells. Particulars: 72 h.
Description: as §1, §2, §3

The subject of experiment [6] is HepG2: a human liver cancer cell line. Briefly: MTT analytical method, HepG2 cells. The conditions noted are these: 72 h.
Description: as §1, §2, §3

Experiment [7] relates to SGC7901: a human gastric cancer line. Briefly: MTT analytical method, SGC7901 cells. Particulars: SGC-7901, 72 h.
Description: as §1, §2, §3

The subject of experiment [8] is A549: a human lung cancer cell line. As to the kind of experiment: MTT analytical method, A549 cells. The conditions noted are these: 72 h.
Description: as §1, §2, §3

As to `CCCCCCCCCCCCOC(=O)c1cc(C(=O)Nc2ccn([C@@H]3O[C@H](CO)[C@@H](O)C3(F)F)c(=O)n2)ccn1` [Compound 27, Dodecyl-4-((1-((2R,4R,5R)-3,3-difluoro-4-hydroxy-5-(hydroxymethyl)-tetrahydrofuran-2-yl)-2-oxo-1,2-dihydropyrimidin-4-yl)carbamoyl)picolinate], the IC50 in experiment [1] is below 1 µM; in experiment [2], 4 µM; in experiment [3], below 2 µM; in experiment [4] it was below 1 µM; in experiment [5], 2 µM; in experiment [6], 1 µM. Also, the IC50 in experiment [7] is above 16 µM; in experiment [8], 4 µM.

For the molecule `CCCCCCCCCCCOC(=O)c1ccc(C(=O)Nc2ccn([C@@H]3O[C@H](CO)[C@@H](O)C3(F)F)c(=O)n2)cn1` [Compound 11, Undecyl-5-((1-((2R,4R,5R)-3,3-difluoro-4-hydroxy-5-(hydroxymethyl)-tetrahydrofuran-2-yl)-2-oxo-1,2-dihydropyrimidin-4-yl)carbamoyl)picolinate], the IC50 was 4 µM in experiment [2], below 2 µM in experiment [3] and 3 µM in experiment [8].

As to `CCCCCCCCCCCCOC(=O)c1cc(C(=O)Nc2ccn([C@@H]3O[C@H](CO)[C@@H](O)C3(F)F)c(=O)n2)[nH]n1` [Compound 31, Dodecyl-5-((1-((2R,4R,5R)-3,3-difluoro-4-hydroxy-5-(hydroxymethyl)-tetrahydrofuran-2-yl)-2-oxo-1,2-dihydropyrimidin-4-yl)carbamoyl)-1H-pyrazole-3-carboxylate], the IC50 in experiment [2] is 30 µM; in experiment [3], 7 µM; in experiment [8] it was 21 µM.

Consider `CCCCCCCCCCCOC(=O)c1ccc(C(=O)Nc2ccn([C@@H]3O[C@H](CO)[C@@H](O)C3(F)F)c(=O)n2)nc1` [Compound 10, Undecyl-6-((1-((2R,4R,5R)-3,3-difluoro-4-hydroxy-5-(hydroxymethyl)-tetrahydrofuran-2-yl)-2-oxo-1,2-dihydropyrimidin-4-yl)carbamoyl)nicotinate], for which the values for the IC50 in experiment [2], in experiment [3] and in experiment [8] were 30 µM, 4 µM and 13 µM, respectively.

As to `CCCCCCCCCCCCOC(=O)c1ccc(C(=O)Nc2ccn([C@@H]3O[C@H](CO)[C@@H](O)C3(F)F)c(=O)n2)nc1` [Compound 8, Dodecyl-6-((1-((2R,4R,5R)-3,3-difluoro-4-hydroxy-5-(hydroxymethyl)-tetrahydrofuran-2-yl)-2-oxo-1,2-dihydropyrimidin-4-yl)carbamoyl)nicotinate], the IC50 was below 2 µM in experiment [1]; 23 µM in experiment [2]; 6 µM in experiment [3]; above 16 µM in experiment [4]; 14 µM in experiment [5]; 7 µM in experiment [6]. The IC50 is above 16 µM in experiment [7] and 4 µM in experiment [8].

Consider `CCCCCCCCCCCOC(=O)c1ccnc(C(=O)Nc2ccn([C@@H]3O[C@H](CO)[C@@H](O)C3(F)F)c(=O)n2)c1` [Compound 28, Undecyl-2-((1-((2R,4R,5R)-3,3-difluoro-4-hydroxy-5-(hydroxymethyl)-tetrahydrofuran-2-yl)-2-oxo-1,2-dihydropyrimidin-4-yl)carbamoyl)isonicotinate], for which the IC50 in experiment [2] was 8 µM; in experiment [3] it was 2 µM; in experiment [8], 8 µM.

As for `CCCCCCCCCCCCOC(=O)c1ccc(C(=O)Nc2ccn([C@@H]3O[C@H](CO)[C@@H](O)C3(F)F)c(=O)n2)cn1` [Compound 9, Dodecyl-5-((1-((2R,4R,5R)-3,3-difluoro-4-hydroxy-5-(hydroxymethyl)-tetrahydrofuran-2-yl)-2-oxo-1,2-dihydropyrimidin-4-yl)carbamoyl)picolinate], the IC50 in experiment [1] was below 2 µM; in experiment [2] it was 13 µM; in experiment [3], 3 µM; in experiment [4], above 16 µM; in experiment [5] it was 5 µM; in experiment [6], 6 µM. Also, the IC50 in experiment [7] was above 16 µM; in experiment [8], 4 µM.

Take `CCCCCCCCCCCOC(=O)c1ncccc1C(=O)Nc1ccn([C@@H]2O[C@H](CO)[C@@H](O)C2(F)F)c(=O)n1` [Compound 15, Undecyl-3-((1-((2R,4R,5R)-3,3-difluoro-4-hydroxy-5-(hydroxymethyl)-tetrahydrofuran-2-yl)-2-oxo-1,2-dihydropyrimidin-4-yl)carbamoyl)picolinate]: the IC50 in experiment [1] is below 1 µM; in experiment [2], 4 µM; in experiment [3], below 2 µM; in experiment [4] it was 11 µM; in experiment [5], 16 µM; in experiment [6], 4 µM. The IC50 in experiment [7] is above 16 µM; in experiment [8], 3 µM.

`CCCCCCCCCCCCOC(=O)c1ccc(C(=O)Nc2ccn([C@@H]3O[C@H](CO)[C@@H](O)C3(F)F)c(=O)n2)s1` [Compound 20, Dodecyl-5-((1-((2R,4R,5R)-3,3-difluoro-4-hydroxy-5-(hydroxymethyl)-tetrahydrofuran-2-yl)-2-oxo-1,2-dihydropyrimidin-4-yl)carbamoyl)thiophene-2-carboxylate]: the values for the concentration for half-maximal inhibition (IC50) in experiment [2], in experiment [3] and in experiment [8] were 14 µM, 6 µM and 13 µM, respectively.

Turning to `CCCCCCCCCCCOC(=O)c1nccnc1C(=O)Nc1ccn([C@@H]2O[C@H](CO)[C@@H](O)C2(F)F)c(=O)n1` [Compound 5, Undecyl-3-((1-((2R,4R,5R)-3,3-difluoro-4-hydroxy-5-(hydroxymethyl)-tetrahydrofuran-2-yl)-2-oxo-1,2-dihydropyrimidin-4-yl)carbamoyl)pyrazine-2-carboxylate], the IC50 in experiment [1] is below 2 µM; in experiment [2] it was 16 µM; in experiment [3], 30 µM; in experiment [4], above 16 µM; in experiment [5] it was 1 µM; in experiment [6] it was 4 µM. The same molecule showed an IC50 in experiment [7] above 16 µM.

Regarding `CCCCCCCCCCCOC(=O)c1cc(C(=O)Nc2ccn([C@@H]3O[C@H](CO)[C@@H](O)C3(F)F)c(=O)n2)ccn1` [Compound 29, Undecyl-4-((1-((2R,4R,5R)-3,3-difluoro-4-hydroxy-5-(hydroxymethyl)-tetrahydrofuran-2-yl)-2-oxo-1,2-dihydropyrimidin-4-yl)carbamoyl)picolinate], the IC50 was 8 µM in experiment [2], below 2 µM in experiment [3] and 3 µM in experiment [8].

Regarding `CCCCCCCCCCCOC(=O)c1cccnc1C(=O)Nc1ccn([C@@H]2O[C@H](CO)[C@@H](O)C2(F)F)c(=O)n1` [Compound 14, Undecyl-2-((1-((2R,4R,5R)-3,3-difluoro-4-hydroxy-5-(hydroxymethyl)-tetrahydrofuran-2-yl)-2-oxo-1,2-dihydropyrimidin-4-yl)carbamoyl)nicotinate], the IC50 was above 200 µM in experiment [2], 35 µM in experiment [3] and 140 µM in experiment [8].

Consider `CCCCCCCCCCCCOC(=O)c1cccc(C(=O)Nc2ccn([C@@H]3O[C@H](CO)[C@@H](O)C3(F)F)c(=O)n2)n1` [Compound 18, Dodecyl-6-((1-((2R,4R,5R)-3,3-difluoro-4-hydroxy-5-(hydroxymethyl)-tetrahydrofuran-2-yl)-2-oxo-1,2-dihydropyrimidin-4-yl)carbamoyl)picolinate], for which the IC50 in experiment [2] amounted to 16 µM; in experiment [3], 7 µM; in experiment [8], 15 µM.
